Assay results as given in patent US11045562B2, “Radiolabelled mGluR2/3 PET ligands” (Janssen Pharmaceutica NV, priority 2015, dated 2021).
Values belong to the molecule of their own block, whether it stands above or below them.

Tests used:
mGluR2/3 [1] = experiment: microPET imaging in rhesus monkey, baseline and compound A pretreatment; assay type: in vivo, rhesus monkey (Macaca mulatta); settings: for BPnd: baseline, SRTM, pons reference
From the text: Dynamic 120-min μPET scans with [^18F]-1 were acquired with a Focus 220 μPET scanner on a rhesus monkey (8 y-old female Macaca mulatta, 5.8 kg), that was sedated with ketamine (Ketalar®) and xylazine (Rompun®) via intramuscular (i.m.) injection. During scanning the monkey received repeatedly an additional dose of ketamine/xylazine via i.v. injection. O2 saturation in blood, breathing frequency and heartbeat frequency were monitored during the entire experiment. The head of the animal was placed central in the field of view of the μPET scanner. Scans were acquired in list mode and Fourier rebinned in 27 time frames (4×15 s, 4×60 s, 5×180 s, 8×300 s, 6×600 s). Data were reconstructed using a 3D maximum a posteriori (3D-MAP) iterative reconstruction. TACs of the whole brain were generated using VOIs with PMOD software. Radioactivity concentration in the brain is expressed as SUV as a function of time after tracer injection. In addition, non-displaceable binding potential (BPnd) was determined, using kinetic modeling based on the simplified reference tissue model (SRTM) with the pons as reference region (0-60 min). Scans were started immediately after i.v. injection of 185 MBq of [^18F]-1 via the vena saphena of the right leg. For the pre-treatment study, the cold authentic reference compound A was dissolved in a vehicle containing 20% (2-hydroxypropyl)-β-cyclodextrin and 2 equivalents HCl, filtered through a 0.22-μm membrane filter (Millex-GV, Millipore) prior to injection. Pre-treatment was done by i.v. injection of 2.5 mg/kg of cold authentic reference compound A, 30 min prior to injection of 185 MBq of [^18F]-1. μPET images were compared to a baseline scan, acquired in the non-treated monkey. Blood samples were collected during both baseline and pre-treatment scans at 10, 30 and 60 min p.i. via a catheter in the vena saphena of the left leg and plasma was analysed for radio metabolites according to the same procedure as for rats.

[2] = Ex-vivo biodistribution in Sprague-Dawley rats; settings: for Uptake, Mean 2 min: 2 min after i.v. injection; for Uptake, Mean 2 min / Uptake, Mean 10 min / Uptake, Mean 30 min / Uptake, Mean 60 min: n=3; for Uptake, Mean 10 min: 10 min after i.v. injection; for Uptake, Mean 30 min: 30 min after i.v. injection; for Uptake, Mean 60 min: 60 min after i.v. injection
Protocol: (§1) Sprague-Dawley rats obtained from Harlan (the Netherlands), were housed in groups of four to six per cage until treatment. They were kept at a constant temperature of 21° C. and at a 12-h light/dark cycle, in which lights were switched on at 8:00 a.m. Animals had unrestricted access to food (Teklad Global 16% Protein Rodent Diet, Harlan, Madison, Wis., USA) and water. All animal experiments were performed in compliance with Belgium laws on animal experimentation and after approval by the local animal ethics committee.
The biodistribution of [^18F]-1 was determined at 2, 10, 30 and 60 min, after injection in Sprague Dawley rats (n=3 per time point. Rats were injected intravenously with 0.7-1.1 MBq via a tail vein and euthanized at the time points indicated above, under isoflurane anesthesia. All tissues were dissected, weighed and counted for radioactivity in a gamma counter.

mGluR2/3 [3] = experiment: microPET scanning in SD rats, baseline and compound A pretreatment; assay type: in vivo
Protocol: Data were acquired in a 128×128×95 matrix with a pixel width of 0.475 mm and a slice thickness of 0.796 mm. During PET imaging, rats were kept under gas anesthesia (2.5% isoflurane in oxygen at a flow rate of 1 l/min), and their body temperature was maintained between 36.5 and 37° C. using a heating pad. PET data were analyzed using Pmod software version 3.2 (Pmod, Zurich Switzerland).
as §1
The peak uptake in frontal cortex during the baseline scan was observed around 15 min after tracer injection.

human mGlu2 = target: T1, human mGlu2 (Homo sapiens, UniProt Q14416); experiment: [3H]-compound A displacement binding, human mGlu2 HEK293 membranes
T1 construct: expressed in transfected cells; host or cells: HEK293
T1 sequence (Q14416 19-872): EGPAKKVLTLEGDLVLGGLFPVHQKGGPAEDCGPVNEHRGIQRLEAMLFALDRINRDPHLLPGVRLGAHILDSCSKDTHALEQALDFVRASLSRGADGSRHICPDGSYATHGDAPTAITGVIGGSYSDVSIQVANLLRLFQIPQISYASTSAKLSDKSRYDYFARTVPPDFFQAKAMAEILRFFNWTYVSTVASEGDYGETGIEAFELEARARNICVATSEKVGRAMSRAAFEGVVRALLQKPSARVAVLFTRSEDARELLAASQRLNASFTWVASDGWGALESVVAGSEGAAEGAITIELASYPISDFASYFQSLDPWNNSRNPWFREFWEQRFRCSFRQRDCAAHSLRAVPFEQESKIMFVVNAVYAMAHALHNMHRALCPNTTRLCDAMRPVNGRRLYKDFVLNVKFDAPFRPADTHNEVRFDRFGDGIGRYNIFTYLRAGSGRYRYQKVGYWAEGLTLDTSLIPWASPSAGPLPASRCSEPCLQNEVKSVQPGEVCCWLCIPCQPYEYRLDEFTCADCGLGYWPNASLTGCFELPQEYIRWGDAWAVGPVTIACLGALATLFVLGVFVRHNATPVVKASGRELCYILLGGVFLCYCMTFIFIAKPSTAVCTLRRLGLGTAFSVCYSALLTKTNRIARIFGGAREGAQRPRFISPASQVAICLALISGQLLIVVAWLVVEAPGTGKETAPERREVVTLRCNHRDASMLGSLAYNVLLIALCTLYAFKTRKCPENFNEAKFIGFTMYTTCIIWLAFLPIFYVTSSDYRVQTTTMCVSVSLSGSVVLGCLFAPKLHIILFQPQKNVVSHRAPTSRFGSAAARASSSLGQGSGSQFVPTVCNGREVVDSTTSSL
Protocol: (§2) For [^3H]-compound A (a NAM compound, selective for mGlu2/3 (˜20 fold selective for 2 over 3) vs other mGluRs) binding, membranes from human mGlu2 and mGlu3 HEK293 cells, and also rat cortical membranes, were used. After thawing, membranes were homogenized using an Ultra Turrax homogenizer and suspended in ice-cold binding buffer containing 50 mM Tris-HCl (pH 7.4), 10 mM MgCl2, 2 mM CaCl2. Displacement studies were done using 6 nM of radioligand, except for human mGlu3 membranes where 25 nM was used. Assay mixtures were incubated for 60 min at RT in a volume of 0.5 ml containing […] or 75 μg membrane protein of human mGlu2, human mGlu3 or rat cortex, respectively. Non-specific binding was estimated in the presence of […] compound B (a NAM with IC50˜10 nM against hmGlu2 and IC50˜200 nM against hmGlu3). Filtration was performed using Whatman GF/C filter sheets pre-soaked in 0.1% PEI and a Brandell harvester 96.
(§3) Filters from filters sheets were punched into vials. After the addition of scintillation liquid, radioactivity on the filters was counted in a Liquid Scintillation Analyzer from Perkin Elmer.
(§4) Radioligand competition binding data were calculated as percentage of total binding measured in the absence of test compound. […] Sigmoid inhibition curves were analyzed using non-linear regression analysis.

mGlu2-3 rat cortex = experiment: [3H]-compound A displacement binding, rat cortical membranes
Protocol: as §2, §3, §4

human mGlu3 = target: T2, human mGlu3 (Homo sapiens, UniProt Q14832); experiment: [3H]-compound A displacement binding, human mGlu3 HEK293 membranes
T2 construct: expressed in transfected cells; host or cells: HEK293
T2 sequence (Q14832 23-879): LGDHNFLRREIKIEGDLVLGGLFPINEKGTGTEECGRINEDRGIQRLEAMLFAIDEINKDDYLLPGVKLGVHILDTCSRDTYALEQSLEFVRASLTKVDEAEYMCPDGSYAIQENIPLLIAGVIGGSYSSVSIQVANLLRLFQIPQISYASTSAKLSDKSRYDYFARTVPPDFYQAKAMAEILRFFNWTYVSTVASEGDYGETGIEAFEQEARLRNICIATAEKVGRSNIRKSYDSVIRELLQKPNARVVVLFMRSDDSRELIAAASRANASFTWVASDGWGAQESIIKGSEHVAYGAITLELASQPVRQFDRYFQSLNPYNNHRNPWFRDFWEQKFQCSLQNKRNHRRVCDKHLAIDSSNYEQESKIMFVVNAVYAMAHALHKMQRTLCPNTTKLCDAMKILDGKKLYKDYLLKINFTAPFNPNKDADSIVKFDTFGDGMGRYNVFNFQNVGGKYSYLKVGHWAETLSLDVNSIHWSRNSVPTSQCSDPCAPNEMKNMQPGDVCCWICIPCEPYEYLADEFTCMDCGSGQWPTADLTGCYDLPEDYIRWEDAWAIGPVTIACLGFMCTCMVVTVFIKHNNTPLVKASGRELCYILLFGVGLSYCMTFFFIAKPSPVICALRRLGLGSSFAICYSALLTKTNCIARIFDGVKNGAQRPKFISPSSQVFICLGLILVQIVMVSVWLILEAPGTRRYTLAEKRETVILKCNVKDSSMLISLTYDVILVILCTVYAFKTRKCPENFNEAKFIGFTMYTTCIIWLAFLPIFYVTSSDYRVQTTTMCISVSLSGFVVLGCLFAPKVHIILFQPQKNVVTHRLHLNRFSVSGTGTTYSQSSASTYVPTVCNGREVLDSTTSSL
Protocol: as §2, §3, §4

melting point: 150.62 °C
SMILES: C[C@H]1CN(c2ccc(C(F)(F)F)c(CF)c2)C(=O)c2c(NC(=O)c3cccnc3N)cnn21 [[^19F]-1]

bone uptake (mGluR2/3 [1]; microPET scans, rhesus monkey): No bone uptake | brain uptake SUV (mGluR2/3 [1]; whole brain, baseline scan): ~3 SUV | time to peak uptake (mGluR2/3 [1]; whole brain, baseline scan): 3.5 min | time of highest uptake ([2]; all brain areas except for the pons): around 10 min | Uptake, Mean 2 min ([2]; blood): 0.72 SUV | Uptake, Mean 10 min ([2]; blood): 0.50 SUV | Uptake, Mean 30 min ([2]; blood): 0.39 SUV | Uptake, Mean 60 min ([2]; blood): 0.28 SUV | Uptake, Mean 2 min ([2]; bone): 0.61 SUV | Uptake, Mean 10 min ([2]; bone): 0.52 SUV | Uptake, Mean 30 min ([2]; bone): 0.73 SUV | Uptake, Mean 60 min ([2]; bone): 0.67 SUV | Uptake, Mean 2 min ([2]; cerebellum): 3.42 SUV | Uptake, Mean 10 min ([2]; cerebellum): 3.33 SUV | Uptake, Mean 30 min ([2]; cerebellum): 1.90 SUV | Uptake, Mean 60 min ([2]; cerebellum): 0.72 SUV | Uptake, Mean 2 min ([2]; cerebrum + cerebellum): 3.19 SUV | Uptake, Mean 10 min ([2]; cerebrum + cerebellum): 3.45 SUV | Uptake, Mean 30 min ([2]; cerebrum + cerebellum): 2.28 SUV | Uptake, Mean 60 min ([2]; cerebrum + cerebellum): 0.85 SUV | Uptake, Mean 2 min ([2]; cortex): 5.42 SUV | Uptake, Mean 10 min ([2]; cortex): 5.98 SUV | Uptake, Mean 30 min ([2]; cortex): 3.87 SUV | Uptake, Mean 60 min ([2]; cortex): 1.36 SUV | brain uptake ([2]; ex-vivo biodistribution, SD rats): high | bone uptake over time ([2]; ex-vivo biodistribution, hinting for some defluorination): went slightly up over time | uptake in liver, kidneys, pancreas and heart ([2]; followed by a fast washout): high initial uptake | Uptake, Mean 2 min ([2]; heart): 4.73 SUV | Uptake, Mean 10 min ([2]; heart): 2.16 SUV | Uptake, Mean 30 min ([2]; heart): 1.49 SUV | Uptake, Mean 60 min ([2]; heart): 1.14 SUV | Uptake, Mean 2 min ([2]; hippocampus): 2.49 SUV | Uptake, Mean 10 min ([2]; hippocampus): 2.83 SUV | Uptake, Mean 30 min ([2]; hippocampus): 1.94 SUV | Uptake, Mean 60 min ([2]; hippocampus): 0.80 SUV | Uptake, Mean 2 min ([2]; kidneys): 6.59 SUV | Uptake, Mean 10 min ([2]; kidneys): 2.76 SUV | Uptake, Mean 30 min ([2]; kidneys): 2.24 SUV | Uptake, Mean 60 min ([2]; kidneys): 1.87 SUV | Uptake, Mean 2 min ([2]; liver): 8.81 SUV | Uptake, Mean 10 min ([2]; liver): 5.70 SUV | Uptake, Mean 30 min ([2]; liver): 3.90 SUV | Uptake, Mean 60 min ([2]; liver): 2.42 SUV | Uptake, Mean 2 min ([2]; lungs): 4.70 SUV | Uptake, Mean 10 min ([2]; lungs): 2.27 SUV | Uptake, Mean 30 min ([2]; lungs): 2.01 SUV | Uptake, Mean 60 min ([2]; lungs): 1.77 SUV | Uptake, Mean 2 min ([2]; muscle): 0.57 SUV | Uptake, Mean 10 min ([2]; muscle): 1.07 SUV | Uptake, Mean 30 min ([2]; muscle): 0.87 SUV | Uptake, Mean 60 min ([2]; muscle): 0.65 SUV | Uptake, Mean 2 min ([2]; pancreas): 6.47 SUV | Uptake, Mean 10 min ([2]; pancreas): 3.07 SUV | Uptake, Mean 30 min ([2]; pancreas): 2.84 SUV | Uptake, Mean 60 min ([2]; pancreas): 2.75 SUV | time of peak uptake ([2]; pons): 2 min | Uptake, Mean 2 min ([2]; pons): 2.65 SUV | Uptake, Mean 10 min ([2]; pons): 2.13 SUV | Uptake, Mean 30 min ([2]; pons): 1.29 SUV | Uptake, Mean 60 min ([2]; pons): 0.56 SUV | Uptake, Mean 2 min ([2]; rest of cerebrum): 3.24 SUV | Uptake, Mean 10 min ([2]; rest of cerebrum): 3.74 SUV | Uptake, Mean 30 min ([2]; rest of cerebrum): 2.45 SUV | Uptake, Mean 60 min ([2]; rest of cerebrum): 0.91 SUV | Uptake, Mean 2 min ([2]; spleen): 3.71 SUV | Uptake, Mean 10 min ([2]; spleen): 1.64 SUV | Uptake, Mean 30 min ([2]; spleen): 1.13 SUV | Uptake, Mean 60 min ([2]; spleen): 0.87 SUV | Uptake, Mean 2 min ([2]; striatum): 3.21 SUV | Uptake, Mean 10 min ([2]; striatum): 3.56 SUV | Uptake, Mean 30 min ([2]; striatum): 3.03 SUV | Uptake, Mean 60 min ([2]; striatum): 1.14 SUV | Uptake, Mean 2 min ([2]; whole cerebrum): 3.11 SUV | Uptake, Mean 10 min ([2]; whole cerebrum): 3.43 SUV | Uptake, Mean 30 min ([2]; whole cerebrum): 2.31 SUV | Uptake, Mean 60 min ([2]; whole cerebrum): 0.87 SUV | blood uptake ([2]; with a slow washout): low | time of peak uptake after tracer injection (mGluR2/3 [3]; frontal cortex, baseline scan): around 15 min | Eff Curve (human mGlu2): 85 | IC50 (human mGlu2; 6 nM [3H]-compound A): 2.88 nM | Eff Curve (mGlu2-3 rat cortex): 103 | pIC50 (mGlu2-3 rat cortex; 6 nM [3H]-compound A): 8.7 | Eff Curve (human mGlu3): 96 | IC50 (human mGlu3; 25 nM [3H]-compound A): 5.01 nM
SMILES: C[C@H]1CN(c2ccc(C(F)(F)F)c(C[18F])c2)C(=O)c2c(NC(=O)c3cccnc3N)cnn21 [compound 1]
BPnd (mGluR2/3 [1]; frontal and prefrontal cortices): high | BPnd (mGluR2/3 [1]; thalamus): low | mGluR2/3 specificity of brain uptake (mGluR2/3 [3]; pons uptake in same range as other regions after compound A pretreatment): good mGluR2/3 specificity
